Tests used:
Assay in all cases: relative viability (nuclei count vs DMSO), 5 days (fraction); higher = more cells survive
[1] = compound: C[As](C)SC[C@H](NC(=O)CC[C@H](N)C(=O)O)C(=O)NCC(=O)O [Darinaparsin] + O=C(CCCCCCC(=O)Nc1ccccc1)NO [Vorinostat] (partner 1 µM)
Outline: (§1)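 Values are medians from duplicate plates. Each reflects relative viability, defined as the nuclei count of treated wells over that of vehicle wells. Lung cancer cell lines in 1536-well plates were pin-tool dosed one day after seeding with one drug alone or with a fixed anchor-drug dose plus five library-drug doses (not always all listed) in √10 steps, then fixed, stained and imaged at 4× after 5 days.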

Darinaparsin + AZD7762 = compound: C[As](C)SC[C@H](NC(=O)CC[C@H](N)C(=O)O)C(=O)NCC(=O)O [Darinaparsin] + NC(=O)Nc1cc(-c2cccc(F)c2)sc1C(=O)N[C@H]1CCCNC1 [AZD7762] (partner 0.2 µM)
Outline: as §1

[2] = compound: C[As](C)SC[C@H](NC(=O)CC[C@H](N)C(=O)O)C(=O)NCC(=O)O [Darinaparsin] + Nc1ncn([C@H]2C[C@H](O)[C@@H](CO)O2)c(=O)n1 [Decitabine] (partner 2 µM)
Outline: as §1

AZ628 + Navitoclax = compound: CC1=C(C=C(C=C1)NC(=O)C2=CC(=CC=C2)C(C)(C)C#N)NC3=CC4=C(C=C3)N=CN(C4=O)C [AZ628] + CC1(C)CCC(c2ccc(Cl)cc2)=C(CN2CCN(c3ccc(C(=O)NS(=O)(=O)c4ccc(N[C@H](CCN5CCOCC5)CSc5ccccc5)c(S(=O)(=O)C(F)(F)F)c4)cc3)CC2)C1 [Navitoclax] (partner 0.5 µM)
Outline: as §1

Row | Cell Line | relative viability ([1]; first compound 0.08 µM) | relative viability ([1]; first compound 0.8 µM) | relative viability ([1]; first compound 2.53 µM) | relative viability ([1]; first compound 8 µM) | relative viability (Darinaparsin + AZD7762; first compound 0.08 µM) | relative viability (Darinaparsin + AZD7762; first compound 0.8 µM) | relative viability (Darinaparsin + AZD7762; first compound 2.53 µM) | relative viability (Darinaparsin + AZD7762; first compound 8 µM) | relative viability ([2]; first compound 0.08 µM) | relative viability ([2]; first compound 0.8 µM) | relative viability ([2]; first compound 2.53 µM) | relative viability ([2]; first compound 8 µM) | relative viability (AZ628 + Navitoclax; first compound 0.08 µM) | relative viability (AZ628 + Navitoclax; first compound 0.253 µM) | relative viability (AZ628 + Navitoclax; first compound 0.8 µM) | relative viability (AZ628 + Navitoclax; first compound 2.53 µM) | relative viability (AZ628 + Navitoclax; first compound 8 µM)
1 | ABC-1 | 1.59 | 1.09 | 1.05 | 1.26 | 0.747 | 0.82 | 0.851 | 0.968 | 1.16 | 1.09 | 1.1 | 0.953 |  |  |  |  | 
2 | NCI-H2342 | 0.876 | 0.721 | 0.734 | 0.828 | 0.642 | 0.463 | 0.418 | 0.498 | 0.712 | 0.688 | 0.76 | 0.702 |  |  |  |  | 
3 | NCI-H2228 | 0.771 | 0.839 | 0.388 | 0.672 |  |  |  |  |  |  |  |  | 0.829 | 1.13 | 1.03 | 1.01 | 0.839
4 | A549 |  |  |  |  |  |  |  |  |  | 0.209 | 0.229 | 0.291 | 1.19 | 1.16 | 1.02 | 1.12 | 0.589
5 | NCI-H358 | 0.744 | 0.636 | 0.594 | 0.745 | 0.478 | 0.581 | 0.591 | 0.522 | 0.189 | 0.21 | 0.231 | 0.193 |  |  |  |  | 
6 | NCI-H2009 | 0.866 | 0.717 | 0.645 | 0.72 |  |  |  |  | 0.412 | 0.354 | 0.375 | 0.398 | 1.11 | 0.94 | 0.98 | 1.04 | 0.455
7 | EBC-1 |  |  |  |  |  |  |  |  |  |  |  |  | 0.349 | 0.427 | 0.325 | 0.326 | 0.224
8 | NCI-H2023 | 0.662 | 0.554 | 0.707 | 0.666 |  |  |  |  | 0.219 | 0.219 | 0.196 | 0.216 | 1.01 | 1.02 | 1.03 | 0.996 | 0.762
9 | NCI-H1703 |  |  |  |  | 0.199 | 0.186 |  | 0.132 |  |  |  |  | 0.751 | 0.311 | 0.294 | 0.354 | 0.253
10 | NCI-H650 | 0.335 | 0.408 | 0.427 | 0.423 | 0.94 | 0.882 | 0.941 | 0.95 | 0.296 | 0.35 | 0.333 | 0.338 |  |  |  |  | 
11 | NCI-H520 | 0.737 | 0.723 | 0.735 | 0.785 |  |  |  |  | 0.528 | 0.55 | 0.472 | 0.552 | 1.18 | 0.842 | 1.05 | 0.968 | 0.772
12 | CAL-12T | 1.09 | 0.707 | 0.785 | 0.931 | 0.773 | 0.541 | 0.694 | 0.648 |  |  |  |  | 1.33 |  | 1.24 | 1.28 | 0.826
13 | NCI-H661 | 0.86 | 0.729 | 0.753 | 0.858 |  |  |  |  | 0.581 | 0.528 | 0.523 | 0.652 |  |  |  |  | 
